Measured values taken from patent EP4445957A1, “ANTIBACTERIAL COVALENT PEPTIDE INHIBITORS” (priority 2023, dated 2024).
Like-named read-outs stand apart in the source and are kept apart here. Square brackets hold non-standard residues; d marks the D form. Peptide text beside a SMILES is read from it. * marks the point of attachment. Cha = N[C@@H](CC1CCCCC1)C(=O)O; Crotonyl(E) = C/C=C/C(=O)*; Dap = NC[C@H](N)C(=O)O; Acryloyl = C=CC(=O)*; BrAc = O=C(CBr)*; ClAc = O=C(CCl)*; X1 = CC#CC(=O)*

Columns and labels:
EcH175GSC = EcH175GSC (Escherichia coli, UniProt P0A988, H175G); assay: Isothermal Titration Calorimetry (ITC/kinITC), H175G mutant sliding clamp; assay type: binding, E. coli; conditions: for ΔΔH (ΔH reduction): H175G SC mutant compared to EcwtSC, 25 °C; for ΔΔH (ΔH reduction) / -TΔS / ΔG / ΔH: R1 buffer; for -TΔS / ΔG / ΔH: 25 °C (298.15K)
Description: (§1) ITC experiments were performed using an iTC200 or a PEAQ-ITC instrument (Microcal Malvern Panalytical). Peptides (300 or 600 µM) were titrated at 25 °C by sequential injections (usually 2 µL each) into an SC solution (30 or 60 µM). Data were corrected for the heat of injection by subtracting the signal of the titration of peptides into protein-free buffer solution either R1 buffer ([4-(2-hydroxyethyl)piperazine-1-ethanesulfonic acid (HEPES) 10 mM pH 7.4, NaCl 0.15 M, EDTA 3 mM] or AcNH4 pH7.4, 150 mM). Each titration was performed at least twice: the exact number of the experiments performed with each peptide is indicated in Tables 1-6. Reported data are mean values (± SD) of all experiments. Analyses of the experimental data were performed, following a classical treatment with AFFINImeter software (https://www.affinimeter.com; S4S, Santiago de Compostela, Spain). In addition, kinetic information was obtained in some cases with kinITC as implemented in software AFFINImeter (D. Burnouf et al., J. Am. Chem. Soc. 2012, 134, 559-565; and P. Dumas et al., in Methods Enzymol., Elsevier, 2016, pp. 157-180).

EcwtSC = EcwtSC (Escherichia coli, UniProt P0A988); assay: Isothermal Titration Calorimetry (ITC/kinITC), wild-type sliding clamp; assay type: binding, E. coli
Description: as §1, with “Peptides (300 or 600 µM) were titrated at 25 °C by sequential injections (usually 2 µL each) into an SC solution (30 or 60 µM).” left out

EcSC = target: T1, EcSC (Escherichia coli, UniProt P0A988); assay: Covalent adduct formation monitored by mass spectrometry, kinetic constants kinact; assay type: biochemical, E. coli; conditions: for formation of covalent adducts: reaction monitored by mass spectrometry
T1 construct: compatible with the molecular weight of ^EcSC monomer (40.6 kDa); endogenous in cells; host or cells: E. coli whole cell lysate
Description: We consider the following two-steps reaction model to describe the binding of the peptide to SC and the covalent bond formation to the His 175 residue: • First step: the peptides bind reversibly to the SC binding site • Second: the formation of the covalent bond. [drawing 31]
Overall, no major effect of the incorporation of the warheads on the binding affinity was observed on the whole series of the TCls. […] Then, kinetic constants (kinact) of compounds 1 and 2 were determined at 22°C and 37°C (Table 7, entries 4 and 7).

[1] = buffer AcNH4 pH 7.4, 150 mM, 295.15 K (22 °C)
[2] = buffer AcNH4 pH 7.4, 150 mM, 310.15 K (37 °C)
[3] = buffer AcNH4 pH 7.4, 150 mM, 310.15 K (37 °C), read-out: KD
[4] = buffer R1 (X 1), 295.15 K (22 °C)
[5] = buffer R1 (X 1), 310.15 K (37 °C)
[6] = buffer AcNH4 pH 7.4, 150 mM, 295.15 K (22 °C), read-out: KD

EcwtSC, sequence (P0A988 whole entry): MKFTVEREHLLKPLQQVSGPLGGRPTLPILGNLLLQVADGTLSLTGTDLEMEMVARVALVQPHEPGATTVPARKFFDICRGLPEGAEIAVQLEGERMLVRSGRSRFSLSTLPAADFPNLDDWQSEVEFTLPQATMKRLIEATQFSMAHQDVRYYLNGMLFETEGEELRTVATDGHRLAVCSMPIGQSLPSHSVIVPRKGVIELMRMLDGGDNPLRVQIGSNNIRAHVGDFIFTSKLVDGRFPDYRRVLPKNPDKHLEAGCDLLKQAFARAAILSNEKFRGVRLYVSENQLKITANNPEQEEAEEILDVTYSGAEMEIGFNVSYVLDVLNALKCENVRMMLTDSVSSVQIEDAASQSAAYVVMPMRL
T1 sequence (P0A988 whole entry): as above
EcH175GSC, sequence (P0A988 whole entry H175G): as the sequence (P0A988 whole entry) above, with H175G counted along it

CC(=O)N[C@@H](CCC(N)=O)C(=O)N[C@@H](CC1CCCCC1)C(=O)N[C@@H](CNC(=O)CCl)C(=O)N[C@@H](CC(C)C)C(=O)N[C@@H](Cc1ccccc1)C(=O)O [Peptide 2, Ac-Gln-Cha-Dap(chloroacetamide)-Leu-Phe-OH] (Ac-Q[Cha][Dap](ClAc)LF-OH)
ΔΔH (ΔH reduction) (EcH175GSC): 3.2 kcal/mol | -TΔS (EcH175GSC): 1.2 (±0.1) kcal/mol | ΔG (EcH175GSC): -8.3 (±0.08) kcal/mol | ΔH (EcH175GSC): -9.6 (±0.1) kcal/mol | -TΔS (EcwtSC; R1 buffer, 25 °C (298.15K)): 2.5 (± 0.4) kcal/mol | ΔG (EcwtSC; R1 buffer, 25 °C (298.15K)): -9.2 (± 0.1) kcal/mol | ΔH (EcwtSC; R1 buffer, 25 °C (298.15K)): -11.7 (± 0.4) kcal/mol | -TΔS (EcwtSC; [1]): 1.7 (± 1.5) kcal/mol | ΔG (EcwtSC; [1]): -9.2 (± 0.1) kcal/mol | ΔH (EcwtSC; [1]): -10.9 (± 1.5) kcal/mol | -TΔS (EcwtSC; [2]): 8.1 (± 3.0) kcal/mol | ΔG (EcwtSC; [2]): -8.9 (± 0.4) kcal/mol | ΔH (EcwtSC; [2]): -16.9 (± 2.7) kcal/mol | Kd (EcwtSC; [3]): 580 nM | -TΔS (EcwtSC; [4]): -0.3 (± 0.1) kcal/mol | ΔG (EcwtSC; [4]): -9.31 (± 0.03) kcal/mol | ΔH (EcwtSC; [4]): -8.9 (± 0.1) kcal/mol | -TΔS (EcwtSC; [5]): 2.3 (± 0.9) kcal/mol | ΔG (EcwtSC; [5]): -9.03 (± 0.23) kcal/mol | ΔH (EcwtSC; [5]): -11.3 (± 0.8) kcal/mol | Kd (EcwtSC; read-out: KD (nM) at 22 °C (AcONH4 buffer), Table 7, 22 °C, AcONH4 buffer): 146 ± 20 nM | kinact (M^-1. s^-1) at 37 °C (AcONH4 buffer) (EcSC; 37 °C, AcONH4 buffer, second-order rate constant): 1.04 ± 0.01 M⁻¹ s⁻¹ | formation of covalent adducts (EcSC): form covalent adducts

C=CC(=O)NC[C@H](NC(=O)[C@H](CC1CCCCC1)NC(=O)[C@H](CCC(N)=O)NC(C)=O)C(=O)N[C@@H](CC(C)C)C(=O)N[C@@H](Cc1ccccc1)C(=O)O [Peptide 1, Ac-Gln-Cha-Dap(acrylamide)-Leu-Phe-OH] (Ac-Q[Cha][Dap](Acryloyl)LF-OH)
ΔΔH (ΔH reduction) (EcH175GSC): 2.1 kcal/mol | -TΔS (EcH175GSC): 3.3 (±0.7) kcal/mol | ΔG (EcH175GSC): -8.3 (±0.1) kcal/mol | ΔH (EcH175GSC): -11.6 (±0.6) kcal/mol | -TΔS (EcwtSC; R1 buffer, 25 °C (298.15K)): 3.7 (± 0.02) kcal/mol | ΔG (EcwtSC; R1 buffer, 25 °C (298.15K)): -9.2 (± 0.07) kcal/mol | ΔH (EcwtSC; R1 buffer, 25 °C (298.15K)): -12.8 (± 0.08) kcal/mol | -TΔS (EcwtSC; [1]): 2.3 (± 0.7) kcal/mol | ΔG (EcwtSC; [1]): -9.3 (± 0.3) kcal/mol | ΔH (EcwtSC; [1]): -11.5 (± 0.5) kcal/mol | Kd (EcwtSC; [6]): 153 nM | -TΔS (EcwtSC; [2]): 6.9 (± 1.1) kcal/mol | ΔG (EcwtSC; [2]): -8.9 (± 0.1) kcal/mol | ΔH (EcwtSC; [2]): -15.9 (± 1.2) kcal/mol | Kd (EcwtSC; [3]): 482 nM | -TΔS (EcwtSC; [4]): 2.1 (± 0.2) kcal/mol | ΔG (EcwtSC; [4]): -9.4 (± 0.2) kcal/mol | ΔH (EcwtSC; [4]): -11.4 (± 0.4) kcal/mol | -TΔS (EcwtSC; [5]): 4.9 (± 1.1) kcal/mol | ΔG (EcwtSC; [5]): -9.04 (± 0.26) kcal/mol | ΔH (EcwtSC; [5]): -13.9 (± 0.8) kcal/mol | formation of covalent adducts (EcSC): form covalent adducts

CC(=O)N[C@@H](CCC(N)=O)C(=O)N[C@@H](CC1CCCCC1)C(=O)N[C@@H](CNC(=O)CBr)C(=O)N[C@@H](CC(C)C)C(=O)N[C@@H](Cc1ccccc1)C(=O)O [Peptide 4, Ac-Gln-Cha-Dap(bromoacetamide)-Leu-Phe-OH] (Ac-Q[Cha][Dap](BrAc)LF-OH)
Kd (EcH175GSC): 730 nM | Kd (EcwtSC; KD (nM) at 22 °C (AcONH4 buffer), Table 7, 22 °C, AcONH4 buffer): 111 ± 17 nM | Kd (EcwtSC; KD (nM) at 25°C (Hepes buffer), Table 7, 25°C, Hepes buffer): 139 ± 54 nM | Kd (EcwtSC; KD (nM) at 37 °C (AcONH4 buffer), Table 7, 37 °C, AcONH4 buffer): 281 ± 62 nM | Kd (EcwtSC; R1 buffer, 25 °C (298.15K), read-out: KD): 141 nM | Kd (EcwtSC; [6]): 111 nM | Kd (EcwtSC; [3]): 281 nM | Kd (EcwtSC; buffer R1 (X 1), 295.15 K (22 °C), read-out: KD): 96.4 nM | Kd (EcwtSC; buffer R1 (X 1), 310.15 K (37 °C), read-out: KD): 273 nM

CC#CC(=O)NC[C@H](NC(=O)[C@H](CC1CCCCC1)NC(=O)[C@H](CCC(N)=O)NC(C)=O)C(=O)N[C@@H](CC(C)C)C(=O)N[C@@H](Cc1ccccc1)C(=O)O [Peptide 5, Ac-Gln-Cha-Dap(but-2-ynamide)-Leu-Phe-OH] (Ac-Q[Cha][Dap](X1)LF-OH)
ΔΔH (ΔH reduction) (EcH175GSC): 2.0 kcal/mol | -TΔS (EcH175GSC): 0.04 (±0.3) kcal/mol | ΔG (EcH175GSC): -9.7 (±0.1) kcal/mol | ΔH (EcH175GSC): -9.7 (±0.2) kcal/mol | -TΔS (EcwtSC; R1 buffer, 25 °C (298.15K)): 2.1 (± 0.1) kcal/mol | ΔG (EcwtSC; R1 buffer, 25 °C (298.15K)): -9.8 (± 0.1) kcal/mol | ΔH (EcwtSC; R1 buffer, 25 °C (298.15K)): -11.8 (± 0.06) kcal/mol | -TΔS (EcwtSC; [4]): 2.7 (± 1.2) kcal/mol | ΔG (EcwtSC; [4]): -10.5 (± 0.2) kcal/mol | ΔH (EcwtSC; [4]): -13.1 (± 1.2) kcal/mol | -TΔS (EcwtSC; [5]): 6.9 (± 0.4) kcal/mol | ΔG (EcwtSC; [5]): -10.12 (± 0.03) kcal/mol | ΔH (EcwtSC; [5]): -17.0 (± 0.4) kcal/mol

C/C=C/C(=O)NC[C@H](NC(=O)[C@H](CC1CCCCC1)NC(=O)[C@H](CCC(N)=O)NC(C)=O)C(=O)N[C@@H](CC(C)C)C(=O)N[C@@H](Cc1ccccc1)C(=O)O [Peptide 3, Ac-Gln-Cha-Dap(but-2-enamide)-Leu-Phe-OH] (Ac-Q[Cha][Dap](Crotonyl(E))LF-OH)
-TΔS (EcwtSC; R1 buffer, 25 °C (298.15K)): 1.1 (± 0.1) kcal/mol | ΔG (EcwtSC; R1 buffer, 25 °C (298.15K)): -9.25 (± 0.01) kcal/mol | ΔH (EcwtSC; R1 buffer, 25 °C (298.15K)): -10.4 (± 0.1) kcal/mol | -TΔS (EcwtSC; [1]): 0.79 (± 0.52) kcal/mol | ΔG (EcwtSC; [1]): -9.02 (± 0.2) kcal/mol | ΔH (EcwtSC; [1]): -9.81 (± 0.4) kcal/mol | Kd (EcwtSC; [6]): 212 nM | -TΔS (EcwtSC; [2]): 6.31 (±0.02) kcal/mol | ΔG (EcwtSC; [2]): -8.97 (± 0.06) kcal/mol | ΔH (EcwtSC; [2]): -15.3 (± 0.1) kcal/mol | -TΔS (EcwtSC; [4]): 1.8 (± 0.4) kcal/mol | ΔG (EcwtSC; [4]): -9.7 (± 0.2) kcal/mol | ΔH (EcwtSC; [4]): -11.7 (± 0.6) kcal/mol | -TΔS (EcwtSC; [5]): 5.8 (± 1) kcal/mol | ΔG (EcwtSC; [5]): -9.1 (± 0.2) kcal/mol | ΔH (EcwtSC; [5]): -14.8 (± 0.8) kcal/mol | Kd (EcwtSC; read-out: KD (nM) at 37 °C (AcONH4 buffer), Table 7, 37 °C, AcONH4 buffer): 475 ± 47 nM
